# Assay results taken from publication PMC11589570, “Critical assessment of LC3/GABARAP ligands used for degrader development and ligandability of LC3/GABARAP binding pockets” (Nature Communications, 2024).
# “And” between values parts separate entries of the source, which are not always exact repeats. Equal values may be shown once. Read-outs that look alike come from different tables or passages of the source.
# Tests used:
# LC3B [1] = molecular target: T1, LC3B (Homo sapiens, UniProt Q9GZQ8); settings: for 3D Mapping code: molar ratio 1:2; for CSP: LC3B:ligand molar ratio 1:2
# LC3B [2] = molecular target: T1, LC3B; test: FP assay with 10O5- and 8F20-based dye-linked tracers 16 and 17; settings: LC3B; compound 3 for tracer 17, compound 4 for tracer 16
# Text: The only experimental difference in our FP assay setup was the addition of 0.05% Tween-20, which is routinely used[27] to suppress unspecific binding of compounds to proteins.
# Fluorescence polarization assay utilizing tracers 16 and 17 for interaction studies with LC3A
# (upper panels) and LC3B (lower panels). The left panels depict protein titration measurements
# detergent in the buffer to suppress unspecific binding. Middle panels depict displacement
# Data were collected in technical
# triplicates with error bars expressing the SD (n=3).
# LC3A = LC3A (Homo sapiens, UniProt Q9H492); test: FP assay with Cy5-labelled p62 LIR tracer (protein titration and tracer displacement); format: binding; settings: for normalized FP signal, p62 LIR tracer displacement: LC3A
smiles,measurement,setting,value
O=C1Nc2ccc(I)cc2C1=Cc1cc(Br)c(O)c(Br)c1 [compound 4],3D Mapping code,LC3B [1]; LC3B residue N84,Light green (intermediate (SD < CSP <2xSD))
same,CSP,"LC3B [1]; LC3B residue P02, estimated",0.002 ppm
same,CSP,"LC3B [1]; LC3B residue P28, estimated",0.016 ppm
same,3D Mapping code,"LC3B [1]; LC3B residue P28, CSP estimated",Light green (intermediate (SD < CSP <2xSD))
same,CSP,"LC3B [1]; LC3B residue P32, estimated",0.024 ppm
same,3D Mapping code,"LC3B [1]; LC3B residue P32, CSP estimated",Light green (intermediate (SD < CSP <2xSD))
same,CSP,"LC3B [1]; LC3B residue P45, estimated",0.005 ppm
same,CSP,"LC3B [1]; LC3B residue P55, estimated",0.025 ppm
same,3D Mapping code,"LC3B [1]; LC3B residue P55, CSP estimated",Light green (intermediate (SD < CSP <2xSD))
same,CSP,LC3B [1]; LC3B residue Q09,0.000424 ppm
same,CSP,LC3B [1]; LC3B residue Q15,0.00358 ppm
same,CSP,LC3B [1]; LC3B residue Q26,0.017 ppm
same,3D Mapping code,LC3B [1]; LC3B residue Q26,Light green (intermediate (SD < CSP <2xSD))
same,CSP,LC3B [1]; LC3B residue Q43,0.00371 ppm
same,CSP,LC3B [1]; LC3B residue Q72,0.009 ppm
same,CSP,LC3B [1]; LC3B residue Q77,0.005 ppm
same,CSP,LC3B [1]; LC3B residue Q116,0.00122 ppm
same,CSP,LC3B [1]; LC3B residue R10,0.005 ppm
same,CSP,LC3B [1]; LC3B residue R11,0.003 ppm
same,CSP,LC3B [1]; LC3B residue R16,0.013 ppm
same,CSP,LC3B [1]; LC3B residue R21,0.026 ppm
same,3D Mapping code,LC3B [1]; LC3B residue R21,Light green (intermediate (SD < CSP <2xSD))
same,CSP,LC3B [1]; LC3B residue R24,0.014 ppm
same,CSP,LC3B [1]; LC3B residue R37,0.016 ppm
same,CSP,LC3B [1]; LC3B residue R68,0.032 ppm
same,3D Mapping code,LC3B [1]; LC3B residue R68,Orange (strong (2xSD <CSP))
same,CSP,LC3B [1]; LC3B residue R69,0.020 ppm
same,3D Mapping code,LC3B [1]; LC3B residue R69,Light green (intermediate (SD < CSP <2xSD))
same,CSP,LC3B [1]; LC3B residue R70,0.032 ppm
same,3D Mapping code,LC3B [1]; LC3B residue R70,Orange (strong (2xSD <CSP))
same,CSP,"LC3B [1]; LC3B residue S03, estimated",0.002 ppm
same,CSP,LC3B [1]; LC3B residue S61,0.017 ppm
same,3D Mapping code,LC3B [1]; LC3B residue S61,Light green (intermediate (SD < CSP <2xSD))
same,3D Mapping code,LC3B [1]; LC3B residue S87,Orange (strong (2xSD <CSP))
same,3D Mapping code,LC3B [1]; LC3B residue S90,Orange (strong (2xSD <CSP))
same,3D Mapping code,LC3B [1]; LC3B residue S92,Orange (strong (2xSD <CSP))
same,CSP,LC3B [1]; LC3B residue S96,0.039 ppm
same,3D Mapping code,LC3B [1]; LC3B residue S96,Orange (strong (2xSD <CSP))
same,CSP,LC3B [1]; LC3B residue S101,0.011 ppm
same,CSP,LC3B [1]; LC3B residue S115,0.008 ppm
same,CSP,LC3B [1]; LC3B residue T06,0.00323 ppm
same,CSP,LC3B [1]; LC3B residue T12,0.00666 ppm
same,CSP,"LC3B [1]; LC3B residue T29, estimated",0.016 ppm
same,3D Mapping code,"LC3B [1]; LC3B residue T29, CSP estimated",Light green (intermediate (SD < CSP <2xSD))
same,CSP,LC3B [1]; LC3B residue T50,0.022 ppm
same,3D Mapping code,LC3B [1]; LC3B residue T50,Light green (intermediate (SD < CSP <2xSD))
same,3D Mapping code,LC3B [1]; LC3B residue T93,Orange (strong (2xSD <CSP))
same,CSP,LC3B [1]; LC3B residue T118,0.005 ppm
same,CSP,LC3B [1]; LC3B residue V17,0.009 ppm
same,CSP,LC3B [1]; LC3B residue V20,0.010 ppm
same,CSP,LC3B [1]; LC3B residue V33,0.029 ppm
same,3D Mapping code,LC3B [1]; LC3B residue V33,Light green (intermediate (SD < CSP <2xSD))
same,CSP,LC3B [1]; LC3B residue V46,0.008 ppm
same,CSP,LC3B [1]; LC3B residue V54,0.049 ppm
same,3D Mapping code,LC3B [1]; LC3B residue V54,Orange (strong (2xSD <CSP))
same,CSP,LC3B [1]; LC3B residue V58,0.034 ppm
same,3D Mapping code,LC3B [1]; LC3B residue V58,Orange (strong (2xSD <CSP))
same,3D Mapping code,LC3B [1]; LC3B residue V83,Orange (strong (2xSD <CSP))
same,3D Mapping code,LC3B [1]; LC3B residue V89,Light green (intermediate (SD < CSP <2xSD))
same,3D Mapping code,"LC3B [1]; LC3B residue V91, CSP estimated",Orange (strong (2xSD <CSP))
same,CSP,LC3B [1]; LC3B residue V98,0.013 ppm
same,CSP,LC3B [1]; LC3B residue V112,0.027 ppm
same,3D Mapping code,LC3B [1]; LC3B residue V112,Light green (intermediate (SD < CSP <2xSD))
same,CSP,LC3B [1]; LC3B residue Y38,0.00356 ppm
same,CSP,LC3B [1]; LC3B residue Y99,0.00251 ppm
same,CSP,LC3B [1]; LC3B residue Y110,0.037 ppm
same,3D Mapping code,LC3B [1]; LC3B residue Y110,Orange (strong (2xSD <CSP))
same,CSP,LC3B [1]; LC3B residue Y113,0.013 ppm
same,CSP induced,"LC3B [1]; N59 HN resonance, molar ratio 10O5:LC3B 1",0.03127
same,CSP induced,"LC3B [1]; N59 HN resonance, molar ratio 10O5:LC3B 2",0.08027
same,CSP induced,"LC3B [1]; N59 HN resonance, molar ratio 10O5:LC3B 8",0.1884
same,CSP induced,"LC3B [1]; S90 HN resonance, molar ratio 10O5:LC3B 1",0.01709
same,CSP induced,"LC3B [1]; S90 HN resonance, molar ratio 10O5:LC3B 2",0.04125
same,CSP induced,"LC3B [1]; S90 HN resonance, molar ratio 10O5:LC3B 8",0.08089
same,CSP induced,"LC3B [1]; Y110 HN resonance, molar ratio 10O5:LC3B 1",0.0222
same,CSP induced,"LC3B [1]; Y110 HN resonance, molar ratio 10O5:LC3B 2",0.03845
same,CSP induced,"LC3B [1]; Y110 HN resonance, molar ratio 10O5:LC3B 8",0.0862
same,displacement of dye-linked tracer by parent compound,LC3B [2],no displacement
same,"normalized FP signal, p62 LIR tracer displacement",LC3A; log10 concentration [M] -3.82391,89.4737
same,"normalized FP signal, p62 LIR tracer displacement","LC3A; log10 concentration [M] -3.82391, listed as 10O5",75.5263
same,"normalized FP signal, p62 LIR tracer displacement","LC3A; log10 concentration [M] -4.1549, listed as 10O5",82.8947 and 95
same,"normalized FP signal, p62 LIR tracer displacement",LC3A; log10 concentration [M] -4.60206,100.526
same,"normalized FP signal, p62 LIR tracer displacement","LC3A; log10 concentration [M] -4.60206, listed as 10O5",87.3684
same,"normalized FP signal, p62 LIR tracer displacement",LC3A; log10 concentration [M] -5,94.4737
same,"normalized FP signal, p62 LIR tracer displacement","LC3A; log10 concentration [M] -5, listed as 10O5",88.6842
same,"normalized FP signal, p62 LIR tracer displacement",LC3A; log10 concentration [M] -5.30103,95.7895
same,"normalized FP signal, p62 LIR tracer displacement","LC3A; log10 concentration [M] -5.69897, listed as 10O5",88.1579 and 98.6842
same,"normalized FP signal, p62 LIR tracer displacement",LC3A; log10 concentration [M] -6.22185,93.1579
same,"normalized FP signal, p62 LIR tracer displacement","LC3A; log10 concentration [M] -6.22185, listed as 10O5",102.368
same,"normalized FP signal, p62 LIR tracer displacement","LC3A; log10 concentration [M] -6.69897, listed as 10O5",99.4737 and 97.6316
same,"normalized FP signal, p62 LIR tracer displacement","LC3A; log10 concentration [M] -7.30103, listed as 10O5",97.6316 and 100
same,"normalized FP signal, p62 LIR tracer displacement","LC3A; log10 concentration [M] -7.79588, listed as 10O5",98.6842 and 98.1579
same,"normalized FP signal, p62 LIR tracer displacement","LC3A; log10 concentration [M] -8.08092, listed as 10O5",98.9474 and 105.263
same,"compound titration LC3A (displacement curve, FP signal)","LC3A; log10 concentration [M] -5.30103, two replicate columns per compound",95.7895
